Patent US8022102B2, “Unsaturated tetracyclic tetrahydrofuran derivatives” (Janssen Pharmaceutica, NV, priority 2004, dated 2011)

Target: T1, human cloned 5-HT2C receptor (Homo sapiens, UniProt P28335)
T1 construct: expressed in transfected cells; host or cells: CHO cells
T1 sequence (P28335 33-458): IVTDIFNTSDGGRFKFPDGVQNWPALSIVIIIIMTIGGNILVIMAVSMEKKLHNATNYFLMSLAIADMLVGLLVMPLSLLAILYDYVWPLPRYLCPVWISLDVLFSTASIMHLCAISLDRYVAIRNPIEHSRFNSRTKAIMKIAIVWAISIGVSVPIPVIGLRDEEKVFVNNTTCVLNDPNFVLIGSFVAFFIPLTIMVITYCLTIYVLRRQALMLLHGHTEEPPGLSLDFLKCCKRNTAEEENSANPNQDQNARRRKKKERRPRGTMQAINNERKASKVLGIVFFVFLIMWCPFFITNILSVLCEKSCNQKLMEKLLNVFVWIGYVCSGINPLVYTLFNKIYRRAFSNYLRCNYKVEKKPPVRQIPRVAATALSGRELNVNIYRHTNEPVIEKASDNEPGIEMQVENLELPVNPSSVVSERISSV
Assay: In vitro binding affinity for 5-HT2C receptor (radioligand binding)
Settings: human cloned 5-HT2C receptor, radioligand binding; read-out: h-5HT2C (converted)
Procedure: (§1) During the incubation, the radioligands bind to the receptor. When equilibrium of binding is reached, the receptor bound radioactivity is separated from the non-bound radioactivity, and the receptor bound activity is counted. The interaction of the test compounds with the receptors is assessed in competition binding experiments. Various concentrations of the test compound are added to the incubation mixture containing the tissue preparation and the radioligand. Binding of the radioligand will be inhibited by the test compound in proportion to its binding affinity and its concentration.

Point of comparison: `COc1ccccc1NC[C@@H]1CC2=C(O1)c1cc(F)ccc1Cc1ccccc12` [Compound 106], IC50 31.6 nM. Against it:
- CCS(=O)(=O)N1CCN(CC2CC3=C(O2)c2cc(F)ccc2Oc2ccccc23)CC1 (stereo not shown) [Compound 47] — 6.3-fold higher, 200 nM
- O=C(C1CC1)N1CCN(CC2CC3=C(O2)c2cc(F)ccc2Oc2ccccc23)CC1 (stereo not shown) [Compound 58] — 5-fold higher, 158 nM
- COC(=O)CC(=O)N1CCN(CC2CC3=C(O2)c2cc(F)ccc2Oc2ccccc23)CC1 (stereo not shown) [Compound 60] — 2.5-fold higher, 79.4 nM
- O=C(Nc1ccccc1)N1CCN(CC2CC3=C(O2)c2cc(F)ccc2Oc2ccccc23)CC1 (stereo not shown) [Compound 84] — 1.6-fold higher, 50.1 nM
- O=C(Nc1ccc(F)cc1)N1CCN(CC2CC3=C(O2)c2cc(F)ccc2Oc2ccccc23)CC1 (stereo not shown) [Compound 86] — within 1.5-fold, 39.8 nM
- COc1ccc(NC(=O)N2CCN(CC3CC4=C(O3)c3cc(F)ccc3Cc3ccccc34)CC2)cc1 (stereo not shown) [Compound 89] — 10-fold lower, 3.16 nM
- COc1ccc(NC(=O)N2CCN(CC3CC4=C(O3)c3cc(F)ccc3Oc3ccccc34)CC2)cc1 (stereo not shown) [Compound 90] — the same, 31.6 nM
- COC(=O)CC(=O)N(C)C[C@H]1CC2=C(O1)c1cc(F)ccc1Cc1ccccc12 [Compound 112] — 2-fold higher, 63.1 nM
- CN(CC(=O)c1ccccc1)C[C@H]1CC2=C(O1)c1cc(F)ccc1Cc1ccccc12 [Compound 114] — 20-fold lower, 1.58 nM
- CN(CC(N)=O)C[C@H]1CC2=C(O1)c1cc(F)ccc1Cc1ccccc12 [Compound 115] — 7.9-fold lower, 3.98 nM
- CN(CC(=O)N(C)C)C[C@H]1CC2=C(O1)c1cc(F)ccc1Cc1ccccc12 [Compound 117] — 16-fold lower, 2 nM
- CN(CC(=O)Nc1ccccc1)C[C@H]1CC2=C(O1)c1cc(F)ccc1Cc1ccccc12 [Compound 118] — 3.2-fold lower, 10 nM
- COc1ccccc1NC(=O)CN(C)C[C@H]1CC2=C(O1)c1cc(F)ccc1Cc1ccccc12 [Compound 119] — within 1.5-fold, 25.1 nM
- CNC(=O)/C=C/CN(C)C[C@H]1CC2=C(O1)c1cc(F)ccc1Cc1ccccc12 [Compound 123] — 16-fold lower, 2 nM
- CN(Cc1nnn[nH]1)C[C@H]1CC2=C(O1)c1cc(F)ccc1Cc1ccccc12 [Compound 125] — 13-fold lower, 2.51 nM
- CNCC1CC2=C(O1)c1ccccc1Cc1cccc(F)c12 (stereo not shown) [Compound 132] — 7.9-fold lower, 3.98 nM
- CNC(=N)CN(C)CC1CC2=C(O1)c1cc(F)ccc1Cc1ccccc12 (stereo not shown) [Compound 138] — 5-fold lower, 6.31 nM

Target: T2, NET (Rattus norvegicus, UniProt Q9WTR4)
T2 construct: Cortex from rat brain was collected and homogenised; from tissue; host or cells: rat brain cortex
Assay: In vitro determination of NET reuptake inhibition ([3H]Nixosetine binding, rat brain cortex)
Settings: rat brain cortex, [3H]Nixosetine; read-out: NET Reuptake Inhibition (converted)
Procedure: Cortex from rat brain was collected and homogenised using an Ultra-Turrax T25 and a Dual homogeniser in ice-cold homogenising buffer containing Tris, NaCl and KCl (50 mM, 120 mM and 5 mM, respectively, pH 7.4) prior to dilution to an appropriate protein concentration optimised for specific and non-specific binding. […] Membrane-bound activity was detected by filtration through a Packard Filtermate harvester onto GF/B Unifilterplates, washed with ice-cold Tris-HCl buffer, containing NaCl and KCl (50 mM, 120 mM and 4 mM; pH 7.4; 6×0.5 ml). Filters were allowed to dry for 24 h before adding scintillation fluid. Scintillation fluid was allowed to saturate filters for 24 h before counting in a Topcount scintillation counter. Percentage specific bound and competition binding curves were calculated using S-Plus software (Insightful).

T2 sequence (Q9WTR4 1-597): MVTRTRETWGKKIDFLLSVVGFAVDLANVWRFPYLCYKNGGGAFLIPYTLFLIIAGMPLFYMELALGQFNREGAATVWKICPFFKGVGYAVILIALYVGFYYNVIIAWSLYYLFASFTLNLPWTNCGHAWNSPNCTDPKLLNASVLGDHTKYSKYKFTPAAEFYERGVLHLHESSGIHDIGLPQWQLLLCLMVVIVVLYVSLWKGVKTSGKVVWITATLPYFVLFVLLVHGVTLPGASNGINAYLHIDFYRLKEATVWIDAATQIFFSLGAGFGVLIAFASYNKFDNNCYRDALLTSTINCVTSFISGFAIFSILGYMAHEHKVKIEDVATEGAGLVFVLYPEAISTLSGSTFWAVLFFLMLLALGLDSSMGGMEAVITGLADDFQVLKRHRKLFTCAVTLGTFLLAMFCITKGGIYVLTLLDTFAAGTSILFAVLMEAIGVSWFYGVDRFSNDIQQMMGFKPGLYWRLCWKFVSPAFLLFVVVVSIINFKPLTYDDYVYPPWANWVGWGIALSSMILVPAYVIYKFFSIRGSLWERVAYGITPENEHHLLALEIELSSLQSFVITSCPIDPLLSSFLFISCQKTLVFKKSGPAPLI

Point of comparison: `CCS(=O)(=O)N1CCN(CC2CC3=C(O2)c2cc(F)ccc2Oc2ccccc23)CC1` (stereo not shown) [Compound 47], IC50 398 nM. Against it:
- O=C(C1CC1)N1CCN(CC2CC3=C(O2)c2cc(F)ccc2Oc2ccccc23)CC1 (stereo not shown) [Compound 58] — 4-fold higher, 1580 nM
- COC(=O)CC(=O)N1CCN(CC2CC3=C(O2)c2cc(F)ccc2Oc2ccccc23)CC1 (stereo not shown) [Compound 60] — 4-fold higher, 1580 nM
- O=C(Nc1ccc(F)cc1)N1CCN(CC2CC3=C(O2)c2cc(F)ccc2Oc2ccccc23)CC1 (stereo not shown) [Compound 86] — higher, > 10000 nM
- COC(=O)CC(=O)N(C)C[C@H]1CC2=C(O1)c1cc(F)ccc1Cc1ccccc12 [Compound 112] — 20-fold higher, 7940 nM
- CNCC1CC2=C(O1)c1ccccc1Cc1cccc(F)c12 (stereo not shown) [Compound 132] — 6.3-fold lower, 63.1 nM
- CNCC1CC2=C(O1)c1ccccc1Cc1ccc(C#N)cc12 (stereo not shown) [Compound 133] — within 1.5-fold, 316 nM

Target: T3, human cloned 5-HT2A receptor (Homo sapiens, UniProt P28223)
T3 construct: expressed in transfected cells; host or cells: L929 cells
Assay: In vitro binding affinity for 5-HT2A receptor (radioligand binding)
Settings: human cloned 5-HT2A receptor, radioligand binding; read-out: h-5HT2A (converted)
Procedure: as §1, with “concentration. The affinities of the compounds for the 5-HT2 receptors were measured by means of radioligand binding studies conducted with: (a) human cloned 5-HT2A receptor, expressed in L929 cells using [^125I]R91150 as radioligand and (b) human cloned 5-HT2C receptor, expressed in CHO cells using [^3H]mesulergine as radioligand.” for “concentration.”

T3 sequence (P28223 whole entry): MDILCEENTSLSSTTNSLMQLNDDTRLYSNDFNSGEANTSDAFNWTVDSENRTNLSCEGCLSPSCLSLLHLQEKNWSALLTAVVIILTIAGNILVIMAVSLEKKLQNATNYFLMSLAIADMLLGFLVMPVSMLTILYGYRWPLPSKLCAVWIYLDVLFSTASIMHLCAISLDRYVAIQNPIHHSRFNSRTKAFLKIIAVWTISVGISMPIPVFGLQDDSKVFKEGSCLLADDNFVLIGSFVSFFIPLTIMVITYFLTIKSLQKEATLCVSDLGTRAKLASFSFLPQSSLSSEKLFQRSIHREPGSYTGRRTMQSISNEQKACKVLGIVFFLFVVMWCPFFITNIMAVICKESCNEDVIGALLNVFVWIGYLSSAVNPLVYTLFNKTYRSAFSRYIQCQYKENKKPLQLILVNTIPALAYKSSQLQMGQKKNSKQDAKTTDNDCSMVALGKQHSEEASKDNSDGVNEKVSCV

Point of comparison: `CN(Cc1nnn[nH]1)C[C@H]1CC2=C(O1)c1cc(F)ccc1Cc1ccccc12` [Compound 125], IC50 3.16 nM. Against it:
- CCS(=O)(=O)N1CCN(CC2CC3=C(O2)c2cc(F)ccc2Oc2ccccc23)CC1 (stereo not shown) [Compound 47] — 50-fold higher, 158 nM
- O=C(Nc1ccccc1)N1CCN(CC2CC3=C(O2)c2cc(F)ccc2Oc2ccccc23)CC1 (stereo not shown) [Compound 84] — 10-fold higher, 31.6 nM
- COc1ccc(NC(=O)N2CCN(CC3CC4=C(O3)c3cc(F)ccc3Cc3ccccc34)CC2)cc1 (stereo not shown) [Compound 89] — 1.6-fold lower, 2 nM
- COc1ccc(NC(=O)N2CCN(CC3CC4=C(O3)c3cc(F)ccc3Oc3ccccc34)CC2)cc1 (stereo not shown) [Compound 90] — 2-fold higher, 6.31 nM
- COc1ccccc1NC[C@@H]1CC2=C(O1)c1cc(F)ccc1Cc1ccccc12 [Compound 106] — 2-fold higher, 6.31 nM
- COC(=O)CC(=O)N(C)C[C@H]1CC2=C(O1)c1cc(F)ccc1Cc1ccccc12 [Compound 112] — 63-fold higher, 200 nM
- CN(CC(=O)c1ccccc1)C[C@H]1CC2=C(O1)c1cc(F)ccc1Cc1ccccc12 [Compound 114] — the same, 3.16 nM
- CN(CC(N)=O)C[C@H]1CC2=C(O1)c1cc(F)ccc1Cc1ccccc12 [Compound 115] — 3.2-fold higher, 10 nM
- CN(CC(=O)N(C)C)C[C@H]1CC2=C(O1)c1cc(F)ccc1Cc1ccccc12 [Compound 117] — 3.2-fold higher, 10 nM
- CN(CC(=O)Nc1ccccc1)C[C@H]1CC2=C(O1)c1cc(F)ccc1Cc1ccccc12 [Compound 118] — 16-fold higher, 50.1 nM
- COc1ccccc1NC(=O)CN(C)C[C@H]1CC2=C(O1)c1cc(F)ccc1Cc1ccccc12 [Compound 119] — 10-fold higher, 31.6 nM
- CNC(=O)/C=C/CN(C)C[C@H]1CC2=C(O1)c1cc(F)ccc1Cc1ccccc12 [Compound 123] — 1.6-fold lower, 2 nM
- CNCC1CC2=C(O1)c1ccccc1Cc1cccc(F)c12 (stereo not shown) [Compound 132] — 3.2-fold higher, 10 nM
- CNCC1CC2=C(O1)c1ccccc1Cc1ccc(C#N)cc12 (stereo not shown) [Compound 133] — 7.9-fold higher, 25.1 nM
- CNC(=N)CN(C)CC1CC2=C(O1)c1cc(F)ccc1Cc1ccccc12 (stereo not shown) [Compound 138] — 4-fold higher, 12.6 nM

Target: T4, human Dopamine D2L receptor (Homo sapiens, UniProt P14416)
T4 construct: expressed in transfected cells; host or cells: CHO cells
Assay: In vitro binding affinity for human D2L receptor ([3H]Spiperone)
Settings: human D2L receptor-transfected CHO cell membranes, [3H]Spiperone; read-out: h-D2L (converted)
Procedure: Frozen membranes of human Dopamine D2L receptor-transfected CHO cells were thawed, briefly homogenised using an Ultra-Turrax T25 homogeniser and diluted in Tris-HCl assay buffer containing NaCl, CaCl2, MgCl2, KCl (50, 120, 2, 1, and 5 mM respectively, adjusted to pH 7.7 with HCl) to an appropriate protein concentration optimised for specific and non-specific binding. Radioligand [^3H]Spiperone (NEN, specific activity ˜70 Ci/mmol) was diluted in assay buffer at a concentration of 2 nmol/L. Prepared radioligand (50 μl), along with 50 μl of either the 10% DMSO control, Butaclamol (10^−6 mol/l final concentration), or compound of interest, was then incubated (30 min, 37° C.) with 400 μl of the prepared membrane solution. Membrane-bound activity was filtered through a Packard Filtermate harvester onto GF/B Unifilterplates and washed with ice-cold Tris-HCl buffer (50 mM; pH 7.7; 6×0.5 ml). Filters were allowed to dry before adding scintillation fluid and counting in a Topcount scintillation counter. Percentage specific bound and competition binding curves were calculated using S-Plus software (Insightful).

T4 sequence (P14416 whole entry): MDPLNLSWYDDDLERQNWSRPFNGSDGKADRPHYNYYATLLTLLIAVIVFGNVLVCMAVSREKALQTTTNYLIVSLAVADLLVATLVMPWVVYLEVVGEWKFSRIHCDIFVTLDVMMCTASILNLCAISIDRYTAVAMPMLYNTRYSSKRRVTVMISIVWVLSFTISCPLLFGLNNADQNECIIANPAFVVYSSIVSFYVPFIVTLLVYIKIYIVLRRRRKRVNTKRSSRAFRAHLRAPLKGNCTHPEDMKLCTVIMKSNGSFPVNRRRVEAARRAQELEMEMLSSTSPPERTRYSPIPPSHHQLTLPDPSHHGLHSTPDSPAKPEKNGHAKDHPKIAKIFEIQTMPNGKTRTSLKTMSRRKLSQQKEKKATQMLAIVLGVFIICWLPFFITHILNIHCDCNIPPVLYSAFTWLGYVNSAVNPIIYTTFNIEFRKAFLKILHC

Point of comparison: `CN(CC(=O)c1ccccc1)C[C@H]1CC2=C(O1)c1cc(F)ccc1Cc1ccccc12` [Compound 114], IC50 794 nM. Against it:
- CCS(=O)(=O)N1CCN(CC2CC3=C(O2)c2cc(F)ccc2Oc2ccccc23)CC1 (stereo not shown) [Compound 47] — 1.6-fold higher, 1260 nM
- O=C(C1CC1)N1CCN(CC2CC3=C(O2)c2cc(F)ccc2Oc2ccccc23)CC1 (stereo not shown) [Compound 58] — 2-fold higher, 1580 nM
- COC(=O)CC(=O)N1CCN(CC2CC3=C(O2)c2cc(F)ccc2Oc2ccccc23)CC1 (stereo not shown) [Compound 60] — 2.5-fold higher, 2000 nM
- O=C(Nc1ccccc1)N1CCN(CC2CC3=C(O2)c2cc(F)ccc2Oc2ccccc23)CC1 (stereo not shown) [Compound 84] — within 1.5-fold, 1000 nM
- O=C(Nc1ccc(F)cc1)N1CCN(CC2CC3=C(O2)c2cc(F)ccc2Oc2ccccc23)CC1 (stereo not shown) [Compound 86] — 3.2-fold lower, 251 nM
- COc1ccc(NC(=O)N2CCN(CC3CC4=C(O3)c3cc(F)ccc3Cc3ccccc34)CC2)cc1 (stereo not shown) [Compound 89] — 20-fold lower, 39.8 nM
- COc1ccc(NC(=O)N2CCN(CC3CC4=C(O3)c3cc(F)ccc3Oc3ccccc34)CC2)cc1 (stereo not shown) [Compound 90] — 1.6-fold lower, 501 nM
- COc1ccccc1NC[C@@H]1CC2=C(O1)c1cc(F)ccc1Cc1ccccc12 [Compound 106] — higher, > 10000 nM
- CN(CC(N)=O)C[C@H]1CC2=C(O1)c1cc(F)ccc1Cc1ccccc12 [Compound 115] — 1.6-fold higher, 1260 nM
- CN(CC(=O)N(C)C)C[C@H]1CC2=C(O1)c1cc(F)ccc1Cc1ccccc12 [Compound 117] — 3.2-fold higher, 2510 nM
- CN(CC(=O)Nc1ccccc1)C[C@H]1CC2=C(O1)c1cc(F)ccc1Cc1ccccc12 [Compound 118] — the same, 794 nM
- COc1ccccc1NC(=O)CN(C)C[C@H]1CC2=C(O1)c1cc(F)ccc1Cc1ccccc12 [Compound 119] — 10-fold higher, 7940 nM
- CNC(=O)/C=C/CN(C)C[C@H]1CC2=C(O1)c1cc(F)ccc1Cc1ccccc12 [Compound 123] — 16-fold lower, 50.1 nM
- CN(Cc1nnn[nH]1)C[C@H]1CC2=C(O1)c1cc(F)ccc1Cc1ccccc12 [Compound 125] — 1.6-fold higher, 1260 nM
- CNCC1CC2=C(O1)c1ccccc1Cc1ccc(C#N)cc12 (stereo not shown) [Compound 133] — 2.6-fold higher, 2040 nM
- CNC(=N)CN(C)CC1CC2=C(O1)c1cc(F)ccc1Cc1ccccc12 (stereo not shown) [Compound 138] — 4-fold higher, 3160 nM
